What was measured:
[1] = molecular target: T1, human MR (mineralocorticoid receptor) (Homo sapiens, UniProt P08235); experiment: Steroid nuclear hormone receptor binding assay, MR; settings: [3H]-aldosterone, HEK293 lysate overexpressing human MR
T1 construct: expressed in transfected cells; host or cells: HEK293 (293-MR lysate)
T1 sequence (P08235 1-984): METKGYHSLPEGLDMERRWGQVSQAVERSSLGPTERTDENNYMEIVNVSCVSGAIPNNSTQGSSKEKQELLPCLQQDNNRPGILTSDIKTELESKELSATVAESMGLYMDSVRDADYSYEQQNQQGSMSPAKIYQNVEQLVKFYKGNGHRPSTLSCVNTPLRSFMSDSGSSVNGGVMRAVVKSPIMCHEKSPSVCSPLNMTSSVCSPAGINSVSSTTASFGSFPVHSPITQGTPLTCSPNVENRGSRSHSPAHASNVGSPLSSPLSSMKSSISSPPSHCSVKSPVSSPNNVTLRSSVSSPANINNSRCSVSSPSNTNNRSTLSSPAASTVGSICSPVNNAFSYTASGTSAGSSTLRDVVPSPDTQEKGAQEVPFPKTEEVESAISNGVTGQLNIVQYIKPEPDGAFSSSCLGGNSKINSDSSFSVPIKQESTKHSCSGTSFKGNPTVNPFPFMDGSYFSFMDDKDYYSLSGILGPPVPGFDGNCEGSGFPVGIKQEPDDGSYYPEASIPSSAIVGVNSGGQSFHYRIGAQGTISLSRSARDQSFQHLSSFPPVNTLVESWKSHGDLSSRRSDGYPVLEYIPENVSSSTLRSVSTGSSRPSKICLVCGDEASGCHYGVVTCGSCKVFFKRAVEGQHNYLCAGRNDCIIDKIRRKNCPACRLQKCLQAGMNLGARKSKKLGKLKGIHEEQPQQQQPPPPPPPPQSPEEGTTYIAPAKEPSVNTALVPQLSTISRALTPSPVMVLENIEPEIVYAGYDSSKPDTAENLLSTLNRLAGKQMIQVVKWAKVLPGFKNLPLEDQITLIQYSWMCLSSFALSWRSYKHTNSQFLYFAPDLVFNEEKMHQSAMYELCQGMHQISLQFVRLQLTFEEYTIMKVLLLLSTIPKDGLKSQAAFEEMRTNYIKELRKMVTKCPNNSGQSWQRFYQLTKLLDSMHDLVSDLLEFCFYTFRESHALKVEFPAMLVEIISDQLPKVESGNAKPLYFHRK
Protocol: (§1) Cell lysates from human embryonic kidney HEK293 cells overexpressing human MR (mineralocorticoid receptor), GR (glucocorticoid receptor), AR (androgen receptor), or PR (progesterone receptor) are used for receptor-ligand competition binding assays to determine Ki values.
(§2) Briefly, steroid receptor competition binding assays are run in a buffer containing 20 mM HEPES buffer (pH=7.6), 0.2 mM EDTA, 75 mM NaCl, 1.5 mM MgCl2, 20% glycerol, 20 mM sodium molybdate, 0.2 mM DTT (dithiothreitol), 20 μg/mL aprotinin and 20 μg/mL leupeptin (assay buffer). Typically, steroid receptor binding assays include radio-labeled ligands, such as 0.25 nM [^3H]-aldosterone for MR binding, 0.7 nM [^3H]-dexamethasone for GR binding, 0.36 nM [^3H]-methyltrienolone for AR binding, and 0.29 nM [^3H]-methyltrienolone for PR binding, and either 20 μg 293-MR lysate, 20 μg 293-GR lysate, 22 μg 293-AR lysate, or 40 μg 293-PR lysate per well. Assays are typically run in 96-well format. Competing test compounds are added at various concentrations ranging from about 0.01 nM to 10 μM. Non-specific binding is determined in the presence of 500 nM aldosterone for MR binding, 500 nM dexamethasone for GR binding, or 500 nM methyltrienolone for AR and PR binding. […] After an incubation of 2 hours, plates are read in a Wallac Microbeta counter. […]

[2] = molecular target: T2, human PR (progesterone receptor) (Homo sapiens, UniProt P06401); experiment: Steroid nuclear hormone receptor binding assay, PR; settings: [3H]-methyltrienolone, HEK293 lysate overexpressing human PR
T2 construct: expressed in transfected cells; host or cells: HEK293 (293-PR lysate)
T2 sequence (P06401 1-933): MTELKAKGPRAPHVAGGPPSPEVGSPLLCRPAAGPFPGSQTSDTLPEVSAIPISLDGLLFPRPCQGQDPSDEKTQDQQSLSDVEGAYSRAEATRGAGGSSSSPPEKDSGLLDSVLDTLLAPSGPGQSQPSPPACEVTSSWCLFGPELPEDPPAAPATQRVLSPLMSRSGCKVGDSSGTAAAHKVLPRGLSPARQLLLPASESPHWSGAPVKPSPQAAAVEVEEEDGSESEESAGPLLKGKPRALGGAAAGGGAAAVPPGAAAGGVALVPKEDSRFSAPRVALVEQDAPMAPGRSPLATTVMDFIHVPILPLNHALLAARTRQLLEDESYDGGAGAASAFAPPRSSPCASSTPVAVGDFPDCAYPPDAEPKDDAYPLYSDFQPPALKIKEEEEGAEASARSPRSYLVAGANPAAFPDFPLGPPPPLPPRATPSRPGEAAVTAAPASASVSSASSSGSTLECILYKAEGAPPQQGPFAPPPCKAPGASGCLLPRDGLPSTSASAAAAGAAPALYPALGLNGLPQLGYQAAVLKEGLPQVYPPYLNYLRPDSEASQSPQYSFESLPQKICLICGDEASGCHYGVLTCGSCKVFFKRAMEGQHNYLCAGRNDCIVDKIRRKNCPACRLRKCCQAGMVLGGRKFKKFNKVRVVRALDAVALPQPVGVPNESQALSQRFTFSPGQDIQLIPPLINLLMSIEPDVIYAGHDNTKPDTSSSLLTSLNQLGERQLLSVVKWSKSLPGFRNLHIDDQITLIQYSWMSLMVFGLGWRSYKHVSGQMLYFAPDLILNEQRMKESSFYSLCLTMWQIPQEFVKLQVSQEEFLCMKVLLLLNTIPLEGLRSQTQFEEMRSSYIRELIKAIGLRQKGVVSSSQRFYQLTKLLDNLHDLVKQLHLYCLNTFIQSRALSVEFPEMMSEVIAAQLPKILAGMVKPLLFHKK
Protocol: as §1, §2

- Ki [1]: ~0.0004 µM
- Ki [2]: ~0.478 µM
Compound: O=c1[nH]c2cc(/C=C3\c4ccccc4COc4cc(F)ccc43)ccc2n1[C@@H]1C[C@@H]2COCCN2C1 [Compound (I), 5-((E)-(3-fluorodibenzo[b,e]oxepin-11(6H)-ylidene)methyl)-1-((7R,8aR)-hexahydro-1H-pyrrolo[2,1-c][1,4]oxazin-7-yl)-1H-benzo[d]imidazol-2(3H)-one]
